Patent publication US20110044938A1 (NYCOMED GMBH, priority 2006, published 2011)

Legend:
[1] = system: RKO (RKOp27) human colon adenocarcinoma cells; test: Alamar Blue cell viability assay, anti-proliferative/cytotoxic activity on proliferating RKO subclones; type: cell-based; conditions: RKOp27, 72 h, RKO p27 uninduced (proliferating) cells, value = class bound given in Table A, read-out: −logIC50 RKO p27 uninduced (proliferating) (converted)
Procedure, shortened: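 Alamar Blue fluorescence (ex 544, em 590 nm) after 72 h compound exposure at 37 °C, 5% CO2, normalised to untreated controls set at 100%. Cells were seeded at 5000 per well and dosed 24 h later with serial semi-logarithmic dilutions in 10% FCS DMEM, four replicates each. −log IC50 [mol/l] was derived from concentration-effect curves.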

[2] = system: subclones of RKO colon adenocarcinoma cells (RKOp27 or RKOp21) arrested by Ponasterone A; test: Alamar Blue cell viability assay, cell cycle specific mode of action: cells arrested by ectopic p27Kip1 induced by Ponasterone A versus proliferating cells; type: cell-based; conditions: Homo sapiens, RKO p27 induced (arrested) cells, 10 μM Ponasterone A, 72 hours, value = class bound given in Table A, read-out: −logIC50 RKO p27 induced (arrested) (converted)
Procedure, shortened: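 Viability of proliferating versus Ponasterone A (10 μM)-arrested RKOp27/RKOp21 cells after 72 h compound exposure at 37° C, in quadruplicate. Read-out is Alamar Blue fluorescence (544/590 nm) normalised to untreated cells = 100%; values as −log IC50.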

| IC50 [2] | Compound | IC50 [1] |
| --- | --- | --- |
| ≥ 50100 nM | CCOc1ccccc1CCC(=O)Nc1sc2c(c1C#N)CCC(OC(=O)NCc1ccnn1C)C2 (stereo not shown) [Example 169, (2-Methyl-2H-pyrazol-3-ylmethyl)-carbamic acid 3-cyano-2-[3-(2-ethoxy-phenyl)-propanoylamino]-4,5,6,7-tetrahydro-benzo[b]thiophen-6-yl ester] | ≤ 501 nM |
| ≥ 10000 nM | CCOc1ccccc1CCC(=O)Nc1sc2c(c1C#N)CCC(OC(=O)NCc1cn(C)cn1)C2 (stereo not shown) [Example 168, (1-Methyl-1H-imidazol-4-ylmethyl)-carbamic acid 3-cyano-2-[3-(2-ethoxy-phenyl)-propanoylamino]-4,5,6,7-tetrahydro-benzo[b]thiophen-6-yl ester] | ≤ 501 nM |
| ≥ 50100 nM | CCOc1ccccc1CCC(=O)Nc1sc2c(c1C#N)CCC(OC(=O)NCc1ccncc1)C2 (stereo not shown) [Example 171, Pyridin-4-ylmethyl-carbamic acid 3-cyano-2-[3-(2-ethoxy-phenyl)-propanoylamino]-4,5,6,7-tetrahydro-benzo[b]thiophen-6-yl ester] | ≤ 501 nM |
| ≥ 100000 nM | CCNC(=O)OCC1CCc2c(sc(NC(=O)CCc3ccccc3OCC)c2C#N)C1 (stereo not shown) [Example 159, Ethyl-carbamic acid 3-cyano-2-[3-(2-ethoxy-phenyl)-propanoylamino]-4,5,6,7-tetrahydro-benzo[b]thiophen-6-ylmethyl ester] | ≤ 501 nM |
| ≥ 100000 nM | Cc1cc(CNC(=O)OCC2CCc3c(sc(NC(=O)CCc4cccnc4)c3C#N)C2)no1 (stereo not shown) [Example 256, (5-Methyl-isoxazol-3-ylmethyl)-carbamic acid 3-cyano-2-(3-pyridin-3-yl-propanoylamino)-4,5,6,7-tetrahydro-benzo[b]thiophen-6-ylmethyl ester] | 501 to 2000 nM |
| ≥ 10000 nM | CCOc1ccccc1CCC(=O)Nc1sc2c(c1C#N)CCC(OC(=O)NCc1nccn1C)C2 (stereo not shown) [Example 173, (1-Methyl-1H-imidazol-2-ylmethyl)-carbamic acid 3-cyano-2-[3-(2-ethoxy-phenyl)-propanoylamino]-4,5,6,7-tetrahydro-benzo[b]thiophen-6-yl ester] | ≤ 501 nM |
| ≥ 100000 nM | CCOc1ccccc1CCC(=O)Nc1sc2c(c1C#N)CCC(OC(=O)N1CCCC1)C2 (stereo not shown) [Example 208, Pyrrolidine-1-carboxylic acid 3-cyano-2-[3-(2-ethoxy-phenyl)-propanoylamino]-4,5,6,7-tetrahydro-benzo[b]thiophen-6-yl ester] | ≤ 501 nM |
| ≥ 50100 nM | CC(CC(=O)Nc1sc2c(c1C#N)CCC(OC(=O)NC(C)c1ccnn1C)C2)c1ccccc1 (stereo not shown) [Example 299, [1-(2-Methyl-2H-pyrazol-3-yl)-ethyl]-carbamic acid 3-cyano-2-(3-phenyl-butanoylamino)-4,5,6,7-tetrahydro-benzo[b]thiophen-6-yl ester] | ≤ 501 nM |

Further lines, the compound ahead of its results:

| Compound | IC50 [2] | IC50 [1] |
| --- | --- | --- |
| COc1cccc(C(C)CC(=O)Nc2sc3c(c2C#N)CCC(COC(=O)NCc2cncn2C)C3)c1 (stereo not shown) [Example 331, (3-Methyl-3H-imidazol-4-ylmethyl)-carbamic acid 3-cyano-2-[3-(3-methoxy-phenyl)-butanoylamino]-4,5,6,7-tetrahydro-benzo[b] thiophen-6-ylmethyl ester] | ≥ 10000 nM | 501 to 2000 nM |
| CCOc1ccccc1/C=C/C(=O)Nc1sc2c(c1C#N)CCC(OC(=O)OCCN1CCOCC1)C2 (stereo not shown) [Example 13, Carbonic acid 3-cyano-2-[(E)-3-(2-ethoxy-phenyl)-allanoylamino]-4,5,6,7-tetrahydro-benzo[b]thiophen-6-yl ester 2-morpholin-4-yl-ethyl ester] | ≥ 100000 nM | 501 to 2000 nM |
| N#Cc1c(NC(=O)/C=C/c2cccnc2)sc2c1CCC(OC(=O)N1CCCCC1)C2 (stereo not shown) [Example 111, Piperidine-1-carboxylic acid 3-cyano-2-((E)-3-pyridin-3-yl-allanoylamino)-4,5,6,7-tetrahydro-benzo[b]thiophen-6-yl ester] | ≥ 100000 nM | ≤ 501 nM |
| Cc1cc(CNC(=O)OC[C@H]2CCc3c(sc(NC(=O)/C=C/c4cccnc4)c3C#N)C2)no1 [Example 47a, (S)-(5-Methyl-isoxazol-3-ylmethyl)-carbamic acid 3-cyano-2-((E)-3-pyridin-3-yl-allanoylamino)-4,5,6,7-tetrahydro-benzo[b]thiophen-6-ylmethyl ester] | ≥ 100000 nM | ≤ 501 nM |
| N#Cc1c(NC(=O)/C=C/c2cccnc2)sc2c1CCC(OC(=O)N1CCC1)C2 (stereo not shown) [Example 80, Azetidine-1-carboxylic acid 3-cyano-2-((E)-3-pyridin-3-yl-allanoylamino)-4,5,6,7-tetrahydro-benzo[b]thiophen-6-yl ester] | ≥ 100000 nM | ≤ 501 nM |
| CCNC(=O)OC[C@@H]1CCc2c(sc(NC(=O)/C=C/c3cccnc3)c2C#N)C1 [Example 9b, (R)-Ethyl-carbamic acid 3-cyano-2-((E)-3-pyridin-3-yl-allanoylamino)-4,5,6,7-tetrahydro-benzo[b]thiophen-6-ylmethyl ester] | ≥ 100000 nM | ≤ 501 nM |
| N#Cc1c(NC(=O)/C=C/c2cccnc2)sc2c1CCC(OC(=O)N1CC[C@@H](O)C1)C2 (stereo partly drawn) [Example 147, (R)-3-Hydroxy-pyrrolidine-1-carboxylic acid 3-cyano-2-((E)-3-pyridin-3-yl-allanoylamino)-4,5,6,7-tetrahydro-benzo[b]thiophen-6-yl ester] | ≥ 100000 nM | 501 to 2000 nM |
| N#Cc1c(NC(=O)/C=C/c2cccnc2)sc2c1CC[C@H](COC(=O)N1CCCC1)C2 [Example 68a, Pyrrolidme-1-carboxyhc acid (S)-3-cyano-2-((E)-3-pyridin-3-yl-allanoylamino)-4,5,6,7-tetrahydro-benzo[b]thiophen-6-ylmethyl ester] | ≥ 100000 nM | ≤ 501 nM |
| COc1cccc(C(C)CC(=O)Nc2sc3c(c2C#N)CCC(COC(=O)NCc2cc(C)nn2C)C3)c1 (stereo not shown) [Example 340, (2,5-Dimethyl-2H-pyrazol-3-ylmethyl)-carbamic acid 3-cyano-2-[3-(3-methoxy-phenyl)-butanoyl-amino]-4,5,6,7-tetrahydro-benzo[b]thiophen-6-ylmethyl ester] | ≥ 10000 nM | 501 to 2000 nM |
| N#Cc1c(NC(=O)/C=C/c2cccnc2)sc2c1CCC(COC(=O)NCCn1ccnc1)C2 (stereo not shown) [Example 30, (2-Imidazol-1-yl-ethyl)-carbamic acid-3-cyano-2-((E)-3-pyridin-3-yl-allanoylamino)-4,5,6,7-tetrahydro-benzo[b]thiophen-6-ylmethyl ester] | ≥ 100000 nM | 501 to 2000 nM |
| Cc1cc(CNC(=O)OC[C@@H]2CCc3c(sc(NC(=O)/C=C/c4cccnc4)c3C#N)C2)no1 [Example 47b, (5-Methyl-isoxazol-3-ylmethyl)-carbamic acid (R)-3-cyano-2-((E)-3-pyridin-3-yl-allanoylamino)-4,5,6,7-tetrahydro-benzo[b]thiophen-6-ylmethyl ester] | ≥ 100000 nM | ≤ 501 nM |
| N#Cc1c(NC(=O)/C=C/c2cccnc2)sc2c1CCC(OC(=O)N[C@H]1CC[C@H](O)CC1)C2 (stereo partly drawn) [Example 106, trans-4-Hydroxycyclohexyl-carbamic acid 3-cyano-2-((E)-3-pyridin-3-yl-allanoylamino)-4,5,6,7-tetrahydro-benzo[b]thiophen-6-yl ester] | ≥ 100000 nM | 501 to 2000 nM |
